Results: patent EP4324461A1, “(E)-N-CINAMOYLAMINOALKANOLES WITH MELANOGENESIS INHIBITORY ACTIVITY” (UNIWERSYTET JAGIELLONSKI, priority 2022, dated 2024)

How the values were obtained:
S. typhimurium TA100 = test: Ames microplate test, TA100; assay type: cell-based, Salmonella typhimurium;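 note: reference level is the mean solvent-control yellow wells plus SD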
Procedure: Bacteria were grown overnight in growth medium.
Table 9. Ames microplate test results.

[1] = system: human reconstructed epidermis model EpiDerm™; test: Extended skin irritation test in reconstructed human epidermis (EpiDerm), 2 and 7 days; assay type: cell-based; settings: 1.0% in 50% PEG (10 µL)
Procedure: In order to perform extended skin irritation (safety) tests on the reconstructed human epidermis, the exposure time to the tested compounds was extended to 2 and 7 days in the human reconstructed epidermis model EpiDerm™ from MatTek. The epidermis was cultured according to the manufacturer's recommendations, using appropriate multi-well plates and culture media. Solutions of the tested compounds were applied to the epidermis using a positive displacement pipette and distributed using a sterile glass bulb headed Pasteur pipette. […] The epidermis was cultured in an incubator ensuring appropriate humidity, temperature (37 °C) and CO2 concentration (5%). The medium was replaced daily. After an appropriate incubation time, i.e. 2 days or 7 days, the epidermis was rinsed with sterile DPBS and incubated with MTT (Thiazolyl Blue Tetrazolium bromide) solution at 37 °C for 3 hours. After this time, a purple color of formazan was observed, correlated with tissue viability. […] Moreover, in the medium collected after the first 24 hours of EpiDerm epidermis culture, the level of interleukin 1α (Il-1α), which is a mediator of inflammation, was determined. Its level correlates with the unfavorable (irritating) effect of the tested substances on the epidermis. The level of IL-1α was determined using the Cayman Elisa test. […] Table 6. Viability results and results of interleukin 1α concentration measurement in the culture medium in the irritation test in the reconstructed human epidermis model EpiDerm.

Hepatocarcinoma HepG2 = test: Safety, LDH test in HepG2; assay type: cell-based; settings: 48 hours, positive control Triton X-100
Procedure: (§1) In order to test the safety of the compounds, both normal human cells were used: keratinocytes (HaCaT), fibroblasts (BJ), primary melanocytes that occur in the skin, as well as human cancer cells: the hepatocarcinoma line HepG2 and the neuroblastoma line SH-SY5Y, which are considered a model for the assessment of hepatocytotoxicity and neurocytotoxicity. The concentrations of the tested compounds in the range of 250-100 µM were used in the studies. The cell lines used in the research were purchased from the American Type Culture Collection (ATCC) and were cultured in media recommended by the manufacturer with the addition of FBS and antibiotics in an incubator ensuring appropriate culture conditions, i.e. humidity, temperature and CO2 concentration. Cells were seeded into multiwell plates and incubated with the test compounds for 48 hours. After this time, MTT and LDH tests were performed to assess cell viability. The MTT test is based on the ability to transform the substrate: [3-(4,5-dimethyl-2-thiazolyl)-2,5-diphenyl-2H-tetrazolium bromide into a colored product only by living cells. The absorbance at 570 nm, which corresponds to the absorption maximum for the product, is directly proportional to cell viability. The LDH test is based on testing the activity of the enzyme lactate dehydrogenase in the culture medium, which is released from cells as a result of damage to the cell membrane, e.g. as a result of cell death. Triton X-100 was used as a positive control in the test. The determination is colorimetric, the substrate is transformed by the released enzyme into a colored product, an increase in absorbance indicates a larger amount of the released enzyme, and thus confirms greater damage to cell membranes. Tables 7 and 8 present the results obtained, which correspond to the viability of cells incubated with the compounds in relation to the viability of cells constituting a control sample, i.e. incubated with the solvent (DMSO) at the same concentration as in the case of the groups tested in the MTT test or in relation to the results obtained for the Triton X-100 positive control in the LDH test. They indicate that the compounds are safe at the concentrations tested. Table 7. Viability of tested normal human cell lines: keratinocytes (HaCaT), fibroblasts (BJ) and primary melanocytes after incubation with the tested compounds - determination in the MTT test (% of solvent control ± SD) and LDH (percentage of positive control - Triton X-100.

E. coli WP2 = test: Ames microplate test, E. coli WP2;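 note: bacteria treated 90 min at 37 °C in 24-well plates, then indicator medium dispensed to 384-well plates and incubated 48 h before yellow-well counting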
Procedure: The study used the Ames microplate test (Ames MPF™ Penta 2 by Xenometrix, Allschwil, Switzerland). Growth medium, exposure medium, indicator medium, positive controls, hepatic microsomal fraction, NADP, glucose-6-phosphate, Salmonella typhimurium and Escherichia coli strains were components of the purchased experimental kit. Bacteria were grown overnight in growth medium. They were then exposed to the test compound at the appropriate concentration in exposure medium without or with the rat microsomal fraction S9 in 24-well plates for 90 min at 37 °C with shaking. Then, indicator medium was added to the wells and pipetted into 384-well plates, which were incubated for 48 hours at 37 °C without shaking. Results were assessed by counting the wells in which the medium turned yellow for each experimental condition.

neuroblastoma SH-SY5Y = test: Safety, MTT test in SH-SY5Y; assay type: cell-based; settings: 48 hours
Procedure: as §1

[2] = system: Chinese hamster ovary cell line (CHO-K1); test: Genotoxicity in the micronucleus test in CHO-K1 cells; assay type: cell-based
[3] = system: Chinese hamster ovary cell line (CHO-K1); test: Cytotoxicity in CHO-K1 cells (MTT) before the micronucleus test; assay type: cell-based; settings: 24 hours
Summary of the method: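 CHO-K1 cells in F-12K with 10% FBS, 37 °C, 5% CO2, exposed to compounds for 24 hours. Viability by MTT, relative to DMSO vehicle at matching concentration; used to pick safe concentrations for the micronucleus test.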

Keratinocytes (HaCaT) [4] = test: Safety, LDH test in keratinocytes; assay type: cell-based; settings: 48 hours, positive control Triton X-100
Procedure: as §1

Keratinocytes (HaCaT) [5] = test: Safety, MTT test in keratinocytes; assay type: cell-based; settings: 48 hours
Procedure: as §1

Fibroblasts (BJ) = test: Safety, MTT test in fibroblasts; assay type: cell-based; settings: 48 hours
Procedure: as §1

Structure (SMILES): O=C(/C=C/c1ccccc1)NCCCCCO [Compound A-133, (2E)-N-(5-hydroxypentyl)-3-phenylprop-2-enamide]
- Increase in the number of yellow wells compared to the reference level (S. typhimurium TA100; 0.5 mM, +S9): 0.83
- Increase in the number of yellow wells compared to the reference level (S. typhimurium TA100; 0.5 mM, without S9): 0.60
- Increase in the number of yellow wells compared to the reference level (S. typhimurium TA100; 1.0 mM, +S9): 0.78
- Increase in the number of yellow wells compared to the reference level (S. typhimurium TA100; 1.0 mM, without S9): 1.03
- Increase in the number of yellow wells compared to the reference level (S. typhimurium TA100; 2.0 mM, +S9): 0.61
- Increase in the number of yellow wells compared to the reference level (S. typhimurium TA100; 2.0 mM, without S9): 0.57
- Il-1α in culture medium ([1]; medium after the first 24 hours): 34.99 ± 1.17 pg/mL
- Viability [% of control, mean±SD] ([1]; 2 days): 107.19±7.45 % of control
- Viability [% of control, mean±SD] ([1]; 7 days): 107.26±21.82 % of control
- Hepatocarcinoma HepG2 LDH (Hepatocarcinoma HepG2; 100 µM): 5.31 percentage of positive control
- Hepatocarcinoma HepG2 LDH (Hepatocarcinoma HepG2; 150 µM): 7.07 percentage of positive control
- Hepatocarcinoma HepG2 LDH (Hepatocarcinoma HepG2; 200 µM): 9.65 percentage of positive control
- Hepatocarcinoma HepG2 LDH (Hepatocarcinoma HepG2; 250 µM): 16.13 percentage of positive control
- Increase in the number of yellow wells compared to the reference level (E. coli WP2; 0.5 mM, +S9): 0.27
- Increase in the number of yellow wells compared to the reference level (E. coli WP2; 0.5 mM, without S9): 0.73
- Increase in the number of yellow wells compared to the reference level (E. coli WP2; 1.0 mM, +S9): 0.44
- Increase in the number of yellow wells compared to the reference level (E. coli WP2; 1.0 mM, without S9): 0.37
- Increase in the number of yellow wells compared to the reference level (E. coli WP2; 2.0 mM, +S9): 0.53
- Increase in the number of yellow wells compared to the reference level (E. coli WP2; 2.0 mM, without S9): 1.10
- Neuroblastoma SH-SYSY MTT (neuroblastoma SH-SY5Y; 100 µM): 101.50±3.33 % of solvent control
- Neuroblastoma SH-SYSY MTT (neuroblastoma SH-SY5Y; 150 µM): 100.75±3.01 % of solvent control
- Neuroblastoma SH-SYSY MTT (neuroblastoma SH-SY5Y; 200 µM): 100.62±5.99 % of solvent control
- Neuroblastoma SH-SYSY MTT (neuroblastoma SH-SY5Y; 250 µM): 100.41±1.87 % of solvent control
- DB (dicentric bridges in 1000 binucleate cells) ([2]; 100 µM): 3.8 ± 2.8
- MN (number of micronuclei in 1000 binucleate cells) ([2]; 100 µM): 7.8 ± 2.9
- NB (nuclear buds in 1000 binucleate cells) ([2]; 100 µM): 6.3 ± 3.7
- NDI (nuclear division index) ([2]; 100 µM): 1.64
- DB (dicentric bridges in 1000 binucleate cells) ([2]; 150 µM): 3.7 ± 2.3
- MN (number of micronuclei in 1000 binucleate cells) ([2]; 150 µM): 6.0 ± 1.9
- NB (nuclear buds in 1000 binucleate cells) ([2]; 150 µM): 4.5 ± 3.3
- NDI (nuclear division index) ([2]; 150 µM): 1.65
- DB (dicentric bridges in 1000 binucleate cells) ([2]; 200 µM): 3.3 ± 1.4
- MN (number of micronuclei in 1000 binucleate cells) ([2]; 200 µM): 6.8 ± 3.2
- NB (nuclear buds in 1000 binucleate cells) ([2]; 200 µM): 4.7 ± 1.8
- NDI (nuclear division index) ([2]; 200 µM): 1.66
- % Viability [mean] ([3]; 100 µM): 94.6%
- % Viability [mean] ([3]; 150 µM): 97.2%
- % Viability [mean] ([3]; 200 µM): 89.1%
- Keratinocytes (HaCaT) LDH (Keratinocytes (HaCaT) [4]; 100 µM): 3.23 percentage of positive control
- Keratinocytes (HaCaT) LDH (Keratinocytes (HaCaT) [4]; 150 µM): 3.08 percentage of positive control
- Keratinocytes (HaCaT) LDH (Keratinocytes (HaCaT) [4]; 200 µM): 6.38 percentage of positive control
- Keratinocytes (HaCaT) LDH (Keratinocytes (HaCaT) [4]; 250 µM): 19.58 percentage of positive control
- Keratinocytes (HaCaT) MTT (Keratinocytes (HaCaT) [5]; 100 µM): 101.35±2.17 % of solvent control
- Keratinocytes (HaCaT) MTT (Keratinocytes (HaCaT) [5]; 150 µM): 101.40±2.08 % of solvent control
- Keratinocytes (HaCaT) MTT (Keratinocytes (HaCaT) [5]; 200 µM): 101.51±2.49 % of solvent control
- Keratinocytes (HaCaT) MTT (Keratinocytes (HaCaT) [5]; 250 µM): 95.53±2.80 % of solvent control
- Fibroblasts (BJ) MTT (Fibroblasts (BJ); 100 µM): 99.41±5.96 % of solvent control
- Fibroblasts (BJ) MTT (Fibroblasts (BJ); 150 µM): 91.68±3.64 % of solvent control
- Fibroblasts (BJ) MTT (Fibroblasts (BJ); 200 µM): 87.76±2.71 % of solvent control
- Fibroblasts (BJ) MTT (Fibroblasts (BJ); 250 µM): 82.50±3.99 % of solvent control
